Where two headings read alike, the source gives them in different places.
Experiments:
[1] = Solubility of gemfibrozil in PEG 400 over a concentration range; type: physicochemical; conditions: standing upright at room temperature overnight
Protocol: A concentrated stock solution of gemfibrozil was prepared in PEG 400. Gemfibrozil was evaluated for its solubility in PEG 400 over concentration range to determine an upper concentration that could be used to prepare a stock solution of gemfibrozil in liquid form. On the day of preparation gemfibrozil was dissolved in the PEG 400 at the indicated concentration. All samples were clear upon mixing. Following mixing, samples were stored standing upright at room temperature overnight.

[2] = cited from earlier work
[3] = Solubility testing of gemfibrozil in solvents/cosolvents at 12 mg/ml and 32 mg/ml; type: physicochemical; conditions: tested at 12 and 32 mg/ml
Protocol: Two doses of gemfibrozil were considered for each solvent/cosolvent. A low dose gemfibrozil preparation: 60 mg gemfibrozil in 5 ml of solvent/cosolvent (12 mg/ml dose), and a high dose gemfibrozil preparation: 160 mg gemfibrozil in 5 mL of solvent/cosolvent (32 mg/ml dose). Table 5 below illustrates that the first six solvent/cosolvents achieved gemfibrozil solubilization at both the 12 mg/ml dose and the 32 mg/ml dose. The solvent/cosolvents included the sodium carbonate/bicarbonate buffer having a pH of 10.5, polyethylene glycol (PEG) 400, glyceryl monolinoleate, propylene glycol dicaprylate/dicaprate, propylene glycol, and glyceryl monooleate.
The citrate buffer having a pH of 4.5 with tocopheryl polyethylene glycol succinate (TPGS) achieved gemfibrozil solubilization only the 12 mg/ml dose. The remainder of the solvents/cosolvents were not able to solubilize gemfibrozil at either the low dose or the high dose concentration.

- solubility limit of gemfibrozil in PEG 400 [1]: 21.3 % w/w
- Gemfibrozil Solubility ([3]; Glycerol and Polysorbate 80): Not soluble
- Gemfibrozil Solubility ([3]; Glyceryl monolinoleate): Soluble at 12 mg/ml and 32 mg/ml
- Gemfibrozil Solubility ([3]; Glyceryl monooleate): Soluble at 12 mg/ml and 32 mg/ml
- Gemfibrozil Solubility ([3]; Polyethylene glycol 400): Soluble at 12 mg/ml and 32 mg/ml
- Gemfibrozil Solubility ([3]; Propylene glycol dicaprylate/dicaprate): Soluble at 12 mg/ml and 32 mg/ml
- Gemfibrozil Solubility ([3]; Propylene glycol): Soluble at 12 mg/ml and 32 mg/ml
- Gemfibrozil Solubility ([3]; Soybean oil): Not soluble
- Gemfibrozil Solubility ([3]; pH 4.5 Citrate buffer and Poloxamer P188): Not soluble
- Gemfibrozil Solubility ([3]; pH 4.5 Citrate buffer and Solutol HS15): Not soluble
- Gemfibrozil Solubility ([3]; pH 4.5 citrate buffer and TPGS): Soluble at 12 mg/ml
- Gemfibrozil Solubility ([3]; pH 10.5 Sodium carbonate/bicarbonate buffer): Soluble at 12 mg/ml and 32 mg/ml
SMILES: Cc1ccc(C)c(OCCCC(C)(C)C(=O)O)c1 [Gemfibrozil, 5-(2,5-dimethylphenoxy)-2,2-dimethyl-pentanoic acid]
- solubility of gemfibrozil ([2]; in DMSO): ~16 mg/mL
- solubility of gemfibrozil ([2]; in ethanol): approximately 30 mg/ml
- solubility of gemfibrozil ([2]; in water): approximately 0.03 mg/ml

Source: patent US20260027048A1, “GEMFIBROZIL FORMULATION” (POLARYX THERAPEUTICS, INC., priority 2022, published 2026)
